Assay results taken from publication PMC9848257, “Design and synthesis of novel rigid dibenzo[b,f]azepines through ring closure technique as promising anticancer candidates against leukaemia and acting as selective topoisomerase II inhibitors and DNA intercalators” (Journal of Enzyme Inhibition and Medicinal Chemistry, 2023).

What was measured:
Type in all cases: cell-based
HOP-62 = assay: NCI-60 one-dose screen, HOP-62; settings: Homo sapiens; HOP-62, non-small cell lung cancer; single dose 10 μM; read-out: Growth inhibition %
Procedure: (§1) Anti-proliferative effects of the counterparts 4a–g and 5a–g were screened against 60 human cancer cell lines, following the Developmental Therapeutics Program protocol, National Cancer Institute[35].
(§2) The anti-tumour activity of the fourteen synthesised congeners was investigated at the NCI against a panel of 60 cancer cell lines (NCI-60 Cell One-Dose Screen). The tested dibenzo[b,f]azepine derivatives were screened at a single dose level (10 μM), Table 1.

M14 = assay: NCI-60 one-dose screen, M14; settings: Homo sapiens; M14, melanoma; single dose 10 μM; read-out: Growth inhibition %
Procedure: as §1, §2

CCRF-CEM = assay: NCI-60 one-dose screen, CCRF-CEM; settings: Homo sapiens, leukaemia, single dose 10 μM, read-out: Growth inhibition %
Procedure: as §1, §2

LOX IMVI = assay: NCI-60 one-dose screen, LOX IMVI; settings: Homo sapiens, melanoma, single dose 10 μM, read-out: Growth inhibition %
Procedure: as §1, §2

K-562 = assay: NCI-60 one-dose screen, K-562; settings: Homo sapiens, K562; K-562, leukaemia; single dose 10 μM; read-out: Growth inhibition %
Procedure: as §1, §2

DU-145 = assay: NCI-60 one-dose screen, DU-145; settings: Homo sapiens; DU-145, prostate cancer; single dose 10 μM; read-out: Growth inhibition %
Procedure: as §1, §2

OVCAR-3 = assay: NCI-60 one-dose screen, OVCAR-3; settings: Homo sapiens; OVCAR-3, ovarian cancer; single dose 10 μM; read-out: Growth inhibition %
Procedure: as §1, §2

UACC-257 = assay: NCI-60 one-dose screen, UACC-257; settings: Homo sapiens; UACC-257, melanoma; single dose 10 μM; read-out: Growth inhibition %
Procedure: as §1, §2

OVCAR-8 = assay: NCI-60 one-dose screen, OVCAR-8; settings: Homo sapiens; OVCAR-8, ovarian cancer; single dose 10 μM; read-out: Growth inhibition %
Procedure: as §1, §2

MALME-3M = assay: NCI-60 one-dose screen, MALME-3M; settings: Homo sapiens, melanoma, single dose 10 μM, read-out: Growth inhibition %
Procedure: as §1, §2

SF-539 = assay: NCI-60 one-dose screen, SF-539; settings: Homo sapiens; SF-539, CNS cancer; single dose 10 μM; read-out: Growth inhibition %
Procedure: as §1, §2

SK-MEL-5 = assay: NCI-60 one-dose screen, SK-MEL-5; settings: Homo sapiens; SK-MEL-5, melanoma; single dose 10 μM; read-out: Growth inhibition %
Procedure: as §1, §2

NCI-H226 = assay: NCI-60 one-dose screen, NCI-H226; settings: Homo sapiens; NCI-H226, non-small cell lung cancer; single dose 10 μM; read-out: Growth inhibition %
Procedure: as §1, §2

HCT-15 = assay: NCI-60 one-dose screen, HCT-15; settings: Homo sapiens; HCT-15, colon cancer; single dose 10 μM; read-out: Growth inhibition %
Procedure: as §1, §2

SK-MEL-2 = assay: NCI-60 one-dose screen, SK-MEL-2; settings: Homo sapiens; SK-MEL-2, melanoma; single dose 10 μM; read-out: Growth inhibition %
Procedure: as §1, §2

T-47D = assay: NCI-60 one-dose screen, T-47D; settings: Homo sapiens, T47D, breast cancer, single dose 10 μM, read-out: Growth inhibition %
Procedure: as §1, §2

SF-295 = assay: NCI-60 one-dose screen, SF-295; settings: Homo sapiens; SF-295, CNS cancer; single dose 10 μM; read-out: Growth inhibition %
Procedure: as §1, §2

HT29 = assay: NCI-60 one-dose screen, HT29; settings: Homo sapiens, HT-29; HT29, colon cancer; single dose 10 μM; read-out: Growth inhibition %
Procedure: as §1, §2

MDA-MB-468 = assay: NCI-60 one-dose screen, MDA-MB-468; settings: Homo sapiens; MDA-MB-468, breast cancer; single dose 10 μM; read-out: Growth inhibition %
Procedure: as §1, §2

KM12 = assay: NCI-60 one-dose screen, KM12; settings: Homo sapiens; KM12, colon cancer; single dose 10 μM; read-out: Growth inhibition %
Procedure: as §1, §2

HS 578 T = assay: NCI-60 one-dose screen, HS 578 T; settings: Homo sapiens, breast cancer, single dose 10 μM, read-out: Growth inhibition %
Procedure: as §1, §2

NCI-H322M = assay: NCI-60 one-dose screen, NCI-H322M; settings: Homo sapiens, non-small cell lung cancer, single dose 10 μM, read-out: Growth inhibition %
Procedure: as §1, §2

MDA-MB-231-ATCC = assay: NCI-60 one-dose screen, MDA-MB-231-ATCC; settings: Homo sapiens, breast cancer, single dose 10 μM, read-out: Growth inhibition %
Procedure: as §1, §2

A498 = assay: NCI-60 one-dose screen, A498; settings: Homo sapiens; A498, renal cancer; single dose 10 μM; read-out: Growth inhibition %
Procedure: as §1, §2

CAKI-1 = assay: NCI-60 one-dose screen, CAKI-1; settings: Homo sapiens; CAKI-1, renal cancer; single dose 10 μM; read-out: Growth inhibition %
Procedure: as §1, §2

SF-268 = assay: NCI-60 one-dose screen, SF-268; settings: Homo sapiens; SF-268, CNS cancer; single dose 10 μM; read-out: Growth inhibition %
Procedure: as §1, §2

HL-60(TB) = assay: NCI-60 one-dose screen, HL-60(TB); settings: Homo sapiens, leukaemia, single dose 10 μM, read-out: Growth inhibition %
Procedure: as §1, §2

OVCAR-4 = assay: NCI-60 one-dose screen, OVCAR-4; settings: Homo sapiens; OVCAR-4, ovarian cancer; single dose 10 μM; read-out: Growth inhibition %
Procedure: as §1, §2

RXF 393 = assay: NCI-60 one-dose screen, RXF 393; settings: Homo sapiens; RXF 393, renal cancer; single dose 10 μM; read-out: Growth inhibition %
Procedure: as §1, §2

NCI-H23 = assay: NCI-60 one-dose screen, NCI-H23; settings: Homo sapiens; NCI-H23, non-small cell lung cancer; single dose 10 μM; read-out: Growth inhibition %
Procedure: as §1, §2

ACHN = assay: NCI-60 one-dose screen, ACHN; settings: Homo sapiens, renal cancer, single dose 10 μM, read-out: Growth inhibition %
Procedure: as §1, §2

COLO 205 = assay: NCI-60 one-dose screen, COLO 205; settings: Homo sapiens; COLO 205, colon cancer; single dose 10 μM; read-out: Growth inhibition %
Procedure: as §1, §2

SW-620 = assay: NCI-60 one-dose screen, SW-620; settings: Homo sapiens; SW-620, colon cancer; single dose 10 μM; read-out: Growth inhibition %
Procedure: as §1, §2

A549-ATCC = assay: NCI-60 one-dose screen, A549-ATCC; settings: Homo sapiens, non-small cell lung cancer, single dose 10 μM, read-out: Growth inhibition %
Procedure: as §1, §2

SK-OV-3 = assay: NCI-60 one-dose screen, SK-OV-3; settings: Homo sapiens; SK-OV-3, ovarian cancer; single dose 10 μM; read-out: Growth inhibition %
Procedure: as §1, §2

| Structure (SMILES) | inhibition at 10 µM (HOP-62) [%] | inhibition at 10 µM (M14) [%] | inhibition at 10 µM (CCRF-CEM) [%] | inhibition at 10 µM (LOX IMVI) [%] | inhibition at 10 µM (K-562) [%] | inhibition at 10 µM (DU-145) [%] | inhibition at 10 µM (OVCAR-3) [%] | inhibition at 10 µM (UACC-257) [%] | inhibition at 10 µM (OVCAR-8) [%] | inhibition at 10 µM (MALME-3M) [%] | inhibition at 10 µM (SF-539) [%] | inhibition at 10 µM (SK-MEL-5) [%] | inhibition at 10 µM (NCI-H226) [%] | inhibition at 10 µM (HCT-15) [%] | inhibition at 10 µM (SK-MEL-2) [%] | inhibition at 10 µM (T-47D) [%] | inhibition at 10 µM (SF-295) [%] | inhibition at 10 µM (HT29) [%] | inhibition at 10 µM (MDA-MB-468) [%] | inhibition at 10 µM (KM12) [%] | further results |
| --- | --- | --- | --- | --- | --- | --- | --- | --- | --- | --- | --- | --- | --- | --- | --- | --- | --- | --- | --- | --- | --- |
| Cc1ccc(-c2nnc(N3c4ccccc4C=Cc4ccccc43)o2)cc1 [Compound 5d, 2-(5 h-Dibenzo[b,f]azepin-5-yl)-5-(p-tolyl)-1,3,4-oxadiazole] | < 10 | < 10 | 26.6 | 25.6 | 47.8 | < 10 | < 10 | < 10 | 11.5 | < 10 | < 10 | 34.6 | 21.6 | 61.1 | < 10 | < 10 | 22 | < 10 | < 10 | 13.1 | inhibition at 10 µM (HS 578 T): 13.2%; inhibition at 10 µM (NCI-H322M): < 10%; inhibition at 10 µM (MDA-MB-231-ATCC): 9.21%; inhibition at 10 µM (A498): < 10%; inhibition at 10 µM (CAKI-1): 16.2%; inhibition at 10 µM (SF-268): 10.1%; inhibition at 10 µM (HL-60(TB)): 33.8%; inhibition at 10 µM (OVCAR-4): < 10%; inhibition at 10 µM (RXF 393): < 10%; inhibition at 10 µM (NCI-H23): < 10%; inhibition at 10 µM (ACHN): < 10%; inhibition at 10 µM (COLO 205): 19.4%; inhibition at 10 µM (SW-620): < 10%; inhibition at 10 µM (A549-ATCC): 12.4%; inhibition at 10 µM (SK-OV-3): < 10% |
| O=[N+]([O-])c1ccc(-c2nnc(N3c4ccccc4C=Cc4ccccc43)o2)cc1 [Compound 5e, 2-(5 h-Dibenzo[b,f]azepin-5-yl)-5–(4-nitrophenyl)-1,3,4-oxadiazole] | < 10 | < 10 | < 10 | < 10 | 25.3 | < 10 | < 10 | < 10 | 1.15 | < 10 | < 10 | 13.7 | 13.7 | 30.7 | < 10 | 18.4 | < 10 | < 10 | 11.4 | < 10 | inhibition at 10 µM (HS 578 T): < 10%; inhibition at 10 µM (NCI-H322M): 4.97%; inhibition at 10 µM (MDA-MB-231-ATCC): 15.3%; inhibition at 10 µM (A498): 14.8%; inhibition at 10 µM (CAKI-1): 29.7%; inhibition at 10 µM (SF-268): 16.1%; inhibition at 10 µM (HL-60(TB)): 30.1%; inhibition at 10 µM (OVCAR-4): 21.8%; inhibition at 10 µM (RXF 393): < 10%; inhibition at 10 µM (NCI-H23): < 10%; inhibition at 10 µM (ACHN): < 10%; inhibition at 10 µM (COLO 205): < 10%; inhibition at 10 µM (SW-620): < 10%; inhibition at 10 µM (A549-ATCC): 16.5%; inhibition at 10 µM (SK-OV-3): < 10% |
